Here are results for 25 compounds from US9592224B2, “Substituted benzothiazoles and therapeutic uses thereof for the treatment of human diseases” (CONSEJO SUPERIOR DE INVESTIGACIONES CIENTÍFICAS, priority 2013, dated 2017).

The target of data set [1] is T1, recombinant human enzyme CK-1δ (Homo sapiens, UniProt P48730).
T1 construct: purchased Millipore Iberica SAU
In words: Enzyme inhibition assay, Luminometer Kinase-GLO method, CK-1δ. The settings on record: for IC50: casein substrate, 4 μM ATP, 60 minutes at 30° C., read-out: Inhibitory Concentration 50 (IC50) CK-1δ. The class given is biochemical. The procedure:
(§1) Enzyme inhibition assays were performed using the Luminometer Kinase-GLO® method. Recombinant human enzyme CK-1δ was purchased from Millipore Iberica SAU and recombinant human enzyme CK-1ε was purchased from Invitrogen. The phosphorylation substration chosen was casein. The Luminescent Kinase Kit (catalogue no. V6711) was obtained from Promega. ATP and other reagents were purchased from Sigma-Aldrich (St. Louis, Mo.).
(§2) The assays were conducted in buffer using 96-well plates. In a typical assay: 10 μL of the test compound (dissolved in dimethylsulfoxide at a concentration of 1 mM and, in turn, dissolved in buffer to the required concentration for the experiment) and 10 μL (16 ng) of the CK-1δ enzyme or 10 μL (50 ng) of the CK-1ε enzyme row were added to each well followed by 20 μL of buffer containing 0.1% casein as substrate and 4 μM of ATP. The assay buffer contained: 50 mM HEPES, pH 7.5; 0.01% Brij-35; 10 mM MgCl2; 1 mM EGTA and 0.01% NaN3. […] After incubating for 60 minutes at 30° C., the enzymatic reaction was stopped using 40 μL of Kinase-GLO® reagent. Luminescence was measured after ten minutes using a FLUOstar Optima (BMG Labtechnologies GmbH, Offenburg, Germany) multimode reader. The activity was proportional to the difference between the total and consumed ATP. Inhibition activities were calculated in accordance with the maximum activity measured in the absence of inhibitor. IC50 is defined as the concentration of each compound that reduces enzyme activity by 50% with respect to that obtained without inhibitor.
(Kinase-Glo reads ATP consumption through a luciferase reaction.)

The target in data set [2] is T2, recombinant human enzyme CK-1ε (Homo sapiens, UniProt P49674).
T2 construct: purchased Invitrogen
T2 sequence (P49674 whole entry): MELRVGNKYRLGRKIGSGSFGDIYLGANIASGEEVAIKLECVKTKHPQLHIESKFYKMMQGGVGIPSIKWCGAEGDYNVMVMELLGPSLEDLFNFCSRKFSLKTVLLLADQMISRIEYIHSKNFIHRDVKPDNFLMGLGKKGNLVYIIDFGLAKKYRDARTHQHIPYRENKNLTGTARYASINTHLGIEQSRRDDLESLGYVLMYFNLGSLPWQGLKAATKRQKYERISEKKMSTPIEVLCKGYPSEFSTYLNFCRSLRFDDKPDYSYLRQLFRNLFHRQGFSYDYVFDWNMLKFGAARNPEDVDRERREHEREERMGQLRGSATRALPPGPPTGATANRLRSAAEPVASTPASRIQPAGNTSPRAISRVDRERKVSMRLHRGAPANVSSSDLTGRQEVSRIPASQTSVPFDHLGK
The data set is described as follows: Enzyme inhibition assay, Luminometer Kinase-GLO method, CK-1ε. As to conditions: for IC50: casein substrate, 4 μM ATP, 60 minutes at 30° C., read-out: Inhibitory Concentration 50 (IC50) CK-1ε. Type of data set: biochemical. The protocol:
as §1, §2

The next data set in a line: in vitro. The settings on record: pig, pH 7.4; for Papp at […]: PAMPA. The protocol:
To filter the samples, PVDF membrane filters (diameter: 30 mm, pore size: 0.45 μm) were used.
Ten reference compounds were selected, whose blood-brain barrier passage is known and public, in order to validate the experiment. […] The solutions were filtered. Next, 180 μL of a PBS/ethanol (70/30) solution were added to each well of the acceptor plate. The donor plate was impregnated with 4 μL of a porcine brain lipid solution dissolved in dodecane (20 mg mL^−1). After 5 min, 180 μL of dissolution of each compound were added to this plate. Of the compounds whose penetration into the central nervous system was to be assessed, between 1-2 mg were taken and dissolved in 1,500 μL of ethanol and 3,500 μL of PBS (pH=7.4), filtered and added to the donor 96-well plate. The donor plate was then placed on the acceptor forming a kind of “sandwich” and allowed to incubate for 2 hours and 30 min at 25° C. The compounds, by passive transport, will move from the donor plate through the porcine brain lipid to the acceptor plate. After 2 hours and 30 min, it was carefully removed from the donor plate. The concentration and absorbance, both of the commercial compounds and the synthesised derivatives evaluated in the acceptor and donor plates were determined using a UV absorbance reader. Each sample was analysed at different wavelengths (3 to 5) in three wells and in at least two independent experiments.

For data set [3] the following is noted: literature value, Di et al, 2003; cited from earlier work.

T1 sequence (P48730 whole entry): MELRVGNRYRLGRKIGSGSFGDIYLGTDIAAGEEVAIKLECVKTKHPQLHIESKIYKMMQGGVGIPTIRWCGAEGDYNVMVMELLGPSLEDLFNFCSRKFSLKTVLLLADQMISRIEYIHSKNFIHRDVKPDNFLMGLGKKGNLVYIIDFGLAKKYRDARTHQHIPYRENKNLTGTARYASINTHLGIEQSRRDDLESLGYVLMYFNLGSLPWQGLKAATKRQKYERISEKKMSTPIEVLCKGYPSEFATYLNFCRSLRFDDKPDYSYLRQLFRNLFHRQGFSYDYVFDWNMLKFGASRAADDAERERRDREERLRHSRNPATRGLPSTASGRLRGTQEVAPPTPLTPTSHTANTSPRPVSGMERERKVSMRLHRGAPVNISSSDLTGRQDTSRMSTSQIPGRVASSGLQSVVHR

Turning to `O=C(Cc1ccc(Cl)cc1)Nc1nc2ccc(C(F)(F)F)cc2s1` [Compound 1, N-(6-trifluoromethylbenzothiazole-2-yl)-2-(4-chlorophenyl)acetamide], the IC50 in data set [1] was found to be 65 nM; in data set [2] it was 550 nM. The Papp at […] in the data set “in vitro” was 9.6 ± 0.1 ×10⁻⁶ cm/s.

Turning to `COc1ccc(CC(=O)Nc2nc3ccc(C(F)(F)F)cc3s2)cc1` [Compound 3, N-(6-trifluoromethylbenzothiazole-2-yl)-2-(4-methoxyphenyl)acetamide], the IC50 was 33 nM in data set [1] and 700 nM in data set [2]. In “in vitro”, this compound came in with a Papp at […] of 14.6 ± 0.1 ×10⁻⁶ cm/s.

Consider `O=C(Cc1cccc(Cl)c1)Nc1nc2ccc(C(F)(F)F)cc2s1` [Compound 4, N-(6-trifluoromethylbenzothiazole-2-yl)-2-(3-chlorophenyl)acetamide], for which the IC50 amounted to 23 nM in data set [1] and 840 nM in data set [2]. In addition, in “in vitro”, the Papp at […] amounted to 5.9 ± 0.5 ×10⁻⁶ cm/s.

Turning to `Cc1ccc2nc(NC(=O)Cc3cccc(Cl)c3)sc2c1` [Compound 5, N-(6-methylbenzothiazole-2-yl)-2-(3-chlorophenyl)acetamide], the IC50 was 83 nM in data set [1] and 880 nM in data set [2]. Besides, in the data set “in vitro”, the Papp at […] amounted to 5.6 ± 0.8 ×10⁻⁶ cm/s.

For the compound `COc1cccc(CC(=O)Nc2nc3ccc(C(F)(F)F)cc3s2)c1` [Compound 6, N-(6-trifluoromethylbenzothiazole-2-yl)-2-(3-methoxyphenyl)acetamide], the IC50 in data set [1] was found to be 42 nM; in data set [2], 690 nM. In the data set “in vitro”, this compound registered a Papp at […] of 11.2 ± 2 ×10⁻⁶ cm/s.

In the case of `COc1ccccc1CC(=O)Nc1nc2ccc(C(F)(F)F)cc2s1` [Compound 8, N-(6-trifluoromethylbenzothiazole-2-yl)-2-(2-methoxyphenyl)acetamide], the IC50 in data set [1] stood at 10 nM; in data set [2], 800 nM. For the same compound, the Papp at […] in the data set “in vitro” was 11.3 ± 2.1 ×10⁻⁶ cm/s.

Turning to `COc1cc(CC(=O)Nc2nc3ccc(C(F)(F)F)cc3s2)cc(OC)c1OC` [Compound 10], the results for the IC50 in data set [1] and in data set [2] were 15 nM and 370 nM, respectively. The compound also had a Papp at […] in “in vitro” of 10.6 ± 0.1 ×10⁻⁶ cm/s.

With `O=C(Cc1ccccc1)Nc1nc2ccc(C(F)(F)F)cc2s1` [Compound 12, N-(6-trifluoromethylbenzothiazole-2-yl)-2-phenylacetamide], the figures for the IC50 in data set [1] and in data set [2] were 47 nM and 760 nM, respectively. Further, in “in vitro”, the Papp at […] is 10.4 ± 3.9 ×10⁻⁶ cm/s.

As to `O=C(Cc1ccccc1)Nc1nc2ccccc2s1` [Compound 14, N-(benzothiazole-2-yl)-2-phenylacetamide], the IC50 in data set [1] stood at 330 nM; in data set [2] it was 2310 nM. In “in vitro”, this compound registered a Papp at […] of 12.7 ± 1.2 ×10⁻⁶ cm/s.

As for `O=C(Cc1cccc(Cl)c1)Nc1nc2ccccc2s1` [Compound 20, N-(benzothiazole-2-yl)-2-(3-chlorophenyl)acetamide], the IC50 in data set [1] turned out to be 850 nM; in data set [2], 2860 nM. Moreover, the apparent permeability coefficient (Papp) at […] in the data set “in vitro” turned out to be 10.6 ± 0.3 ×10⁻⁶ cm/s.

For `COc1ccccc1CC(=O)Nc1nc2ccc(C)cc2s1` [Compound 30, N-(6-methylbenzothiazole-2-yl)-2-(2-methoxyphenyl)acetamide], the IC50 in data set [1] worked out at 290 nM; in data set [2], 4930 nM. The compound also came in with a Papp at […] in “in vitro” of 6.2 ± 0.5 ×10⁻⁶ cm/s.

As to `O=C(CCc1cccc(Cl)c1)Nc1nc2ccccc2s1` [Compound 47, N-(benzothiazole-2-yl)-3-(3-chlorophenyl)propanamide], the IC50 in data set [1] was 3580 nM. In addition, in data set [2], the inhibition at 10 µM was found to be 31%.

For the compound `CCOc1ccc2nc(NC(=O)Cc3cccc(Cl)c3)sc2c1` [Compound 48, N-(6-ethoxybenzothiazole-2-yl)-2-(3-chlorophenyl)acetamide], the values for the IC50 in data set [1] and in data set [2] were 1210 nM and 9750 nM, respectively.

For `COc1ccc2nc(NC(=O)Cc3ccccc3Cl)sc2c1` [Compound 49, N-(6-methoxybenzothiazole-2-yl)-2-(2-chlorophenyl)acetamide], in data set [1], the IC50 came out at 9710 nM. Besides, the inhibition at 10 µM in data set [2] was found to be 30%.

On to `CCOc1ccc2nc(NC(=O)Cc3ccccc3Cl)sc2c1` [Compound 50, N-(6-ethoxybenzothiazole-2-yl)-2-(2-chlorophenyl)acetamide], for which the IC50 in data set [1] came out at 17400 nM. In addition, the inhibition at 10 µM in data set [2] worked out at 20%.

Regarding `COc1ccc2nc(NC(=O)Cc3ccccc3OC)sc2c1` [Compound 51, N-(6-methoxybenzothiazole-2-yl)-2-(2-methoxyphenyl)acetamide], the IC50 in data set [1] turned out to be 2220 nM. Also, the inhibition at 10 µM in data set [2] came to 33%. The compound further came in with a Papp at […] in the data set “in vitro” of 11.2 ± 0.9 ×10⁻⁶ cm/s.

`CCOc1ccc2nc(NC(=O)Cc3ccccc3OC)sc2c1` [Compound 52, N-(6-ethoxybenzothiazole-2-yl)-2-(2-methoxyphenyl)acetamide]: the IC50 in data set [1] was determined as 5760 nM. The inhibition at 10 µM in data set [2] is 46%.

`COc1ccc2nc(NC(=O)Cc3ccc(Cl)c(Cl)c3)sc2c1` [Compound 53, N-(6-methoxybenzothiazole-2-yl)-2-(3,4-dichlorophenyl)acetamide]: the IC50 in data set [1] was 1240 nM; in data set [2], 16500 nM.

For `CCOc1ccc2nc(NC(=O)Cc3ccc(Cl)c(Cl)c3)sc2c1` [Compound 54, N-(6-ethoxybenzothiazole-2-yl)-2-(3,4-dichlorophenyl)acetamide], the IC50 came out at 3430 nM in data set [1] and 14200 nM in data set [2].

For the compound `COc1ccc2nc(NC(=O)Cc3cc(OC)c(OC)c(OC)c3)sc2c1` [Compound 55, N-(6-methoxybenzothiazole-2-yl)-2-(3,4,5-trimethoxyphenyl)acetamide], the IC50 turned out to be 6650 nM in data set [1] and 17700 nM in data set [2].

`CCOc1ccc2nc(NC(=O)Cc3cc(OC)c(OC)c(OC)c3)sc2c1` [Compound 56, N-(6-ethoxybenzothiazole-2-yl)-2-(3,4,5-trimethoxyphenyl)acetamide]: the figures for the IC50 in data set [1] and in data set [2] were 1430 nM and 9830 nM, respectively.

`COc1cc(/C=C/C(=O)Nc2nc3ccc(S(=O)(=O)N(C)C)cc3s2)cc(OC)c1OC` [Compound 57, (E)-N-(6-(N,N-dimethylsulfamoyl)benzothiazole-2-yl)-3-(3,4,5-trimethoxyphenyl) acrylamide]: in data set [1] (@ 10 μM), the “CK-1δ inhibition % @ 10 μM” value turned out to be 10% @. Besides, in data set [2] (@ 10 μM), the “CK-1ε inhibition % @ 10 μM” value amounted to 10% @.

Consider `COc1ccccc1CC(=O)Nc1nc2ccc(F)cc2s1` [Compound 59, N-(6-fluorobenzothiazole-2-yl)-2-(2-methoxyphenyl)acetamide], for which the IC50 was determined as 1170 nM in data set [1] and 4510 nM in data set [2].

`CN1C(C(=O)Nc2ccccn2)=C(O)c2ccccc2S1(=O)=O` [Piroxicam, reference compound]: the “Pe (10^−6 cm s^−1) PAMPA-blood-brain barrier permeation” value in “in vitro” ([…]) was 0.2 ± 0.1 10^−6 cm s^−1. Further, the “Bibl. PAMPA-blood-brain barrier permeation (Pe)” value in data set [3] was 2.5 10^−6 cm s^−1.

`CN(C)CCCN1c2ccccc2Sc2ccccc21` [Promazine, reference compound] displayed a Papp at […] in the data set “in vitro” of 8.5 ± 0.1 ×10⁻⁶ cm/s. Moreover, in data set [3], the “Bibl. PAMPA-blood-brain barrier permeation (Pe)” value is on record as 8.8 10^−6 cm s^−1.

For orientation: Papp means a coefficient for how fast a substance crosses the barrier. The term inhibition denotes the percentage by which the read-out fell short of the control.
